Test: molar heat capacity at constant pressure
Conditions: 101.33 kPa, Crystal

CC(=O)N[C@@H](C=O)[C@@H](O)[C@H](O)[C@H](O)CO [N-acetyl-D-glucosamine]
Small sample (50 mg) DSC
Conditions	molar heat capacity at constant pressure [J/K/mol]
288.15 K	269.8
293.15 K	276.4
298.15 K	276.9
303.15 K	278
308.15 K	283.3
313.15 K	281
318.15 K	281.4
323.15 K	292.7
328.15 K	293.1
333.15 K	299.4
338.15 K	303.8
343.15 K	308.7
348.15 K	319.7
353.15 K	325.2
358.15 K	332

O=C[C@H](O)[C@@H](O)[C@H](O[C@H]1O[C@H](CO)[C@@H](O[C@H]2O[C@H](CO)[C@@H](O)[C@H](O)[C@H]2O)[C@H](O)[C@H]1O)[C@H](O)CO [maltotriose]
Small sample (50 mg) DSC
Conditions	molar heat capacity at constant pressure [J/K/mol]
288.15 K	638.3
293.15 K	654
298.15 K	662.5
303.15 K	662.7
308.15 K	666.3
313.15 K	676.9
318.15 K	683.9
323.15 K	698.2
328.15 K	707.4
333.15 K	718.6
338.15 K	736.3
343.15 K	753.8
348.15 K	773.2
353.15 K	787.3
358.15 K	823.7

CO[C@H]1O[C@H](CO)[C@@H](O)[C@H](O)[C@H]1O [methyl-α-D-glucopyranoside]
Small sample (50 mg) DSC
Conditions	molar heat capacity at constant pressure [J/K/mol]
288.15 K	232.1
293.15 K	231
298.15 K	233.7
303.15 K	235.7
308.15 K	240.7
313.15 K	247.5
318.15 K	255.9
323.15 K	264.7
328.15 K	274.2
333.15 K	283.6
338.15 K	293.4
343.15 K	302.9
348.15 K	311.5
353.15 K	319
358.15 K	325.5

O[C@@H]1[C@@H](O)[C@@H](O)OC[C@H]1O [xylopyranose, α-D-]
Vacuum adiabatic calorimetry
Conditions	molar heat capacity at constant pressure [J/K/mol]
288.15 K	178.3
293.15 K	180.9
298.15 K	180.4
303.15 K	182.8
308.15 K	185.7
313.15 K	185.8
318.15 K	187.3
323.15 K	190.4
328.15 K	192
333.15 K	192.6
338.15 K	195.7
343.15 K	200
348.15 K	204.6
353.15 K	209.4
358.15 K	213.8

OC[C@H]1O[C@H](O)[C@H](O)[C@@H](O)[C@@H]1O [α-D-glucose]
Small sample (50 mg) DSC
Conditions	molar heat capacity at constant pressure [J/K/mol]
288.15 K	210.2
293.15 K	214.8
298.15 K	219.9
303.15 K	222.8
308.15 K	226.5
313.15 K	232.6
318.15 K	235.8
323.15 K	240.5
328.15 K	242.1
333.15 K	246.2
338.15 K	250.5
343.15 K	255.2
348.15 K	260.4
353.15 K	262.4
358.15 K	267.7

O.OC[C@H]1O[C@@H](O[C@H]2[C@H](O)[C@@H](O)[C@@H](O)O[C@@H]2CO)[C@H](O)[C@@H](O)[C@H]1O [α-D-lactose hydrate]
Small sample (50 mg) DSC
Conditions	molar heat capacity at constant pressure [J/K/mol]
288.15 K	400.9
293.15 K	426.9
298.15 K	435.8
303.15 K	440.7
308.15 K	446.4
313.15 K	450
318.15 K	452.2
323.15 K	459.8
328.15 K	464.5
333.15 K	468.3
338.15 K	477.1
343.15 K	488.2
348.15 K	497.7
353.15 K	506.8
358.15 K	522.7

OC[C@H]1O[C@@H]2O[C@H]3[C@H](O)[C@@H](O)[C@@H](O[C@H]4[C@H](O)[C@@H](O)[C@@H](O[C@H]5[C@H](O)[C@@H](O)[C@@H](O[C@H]6[C@H](O)[C@@H](O)[C@@H](O[C@H]7[C@H](O)[C@@H](O)[C@@H](O[C@H]1[C@H](O)[C@H]2O)O[C@@H]7CO)O[C@@H]6CO)O[C@@H]5CO)O[C@@H]4CO)O[C@@H]3CO [α-cyclodextrin]
Small sample (50 mg) DSC
Conditions	molar heat capacity at constant pressure [J/K/mol]
288.15 K	1074.6
293.15 K	1113.2
298.15 K	1150
303.15 K	1164.1
308.15 K	1201.5
313.15 K	1212.6
318.15 K	1230.2
323.15 K	1259.3
328.15 K	1282.6
333.15 K	1305.3
338.15 K	1335.3
343.15 K	1364.6
348.15 K	1401.6
353.15 K	1442.6
358.15 K	1502.7

OC[C@H]1O[C@@H]2O[C@H]3[C@H](O)[C@@H](O)[C@@H](O[C@H]4[C@H](O)[C@@H](O)[C@@H](O[C@H]5[C@H](O)[C@@H](O)[C@@H](O[C@H]6[C@H](O)[C@@H](O)[C@@H](O[C@H]7[C@H](O)[C@@H](O)[C@@H](O[C@H]8[C@H](O)[C@@H](O)[C@@H](O[C@H]1[C@H](O)[C@H]2O)O[C@@H]8CO)O[C@@H]7CO)O[C@@H]6CO)O[C@@H]5CO)O[C@@H]4CO)O[C@@H]3CO [β-cyclodextrin]
Small sample (50 mg) DSC
Conditions	molar heat capacity at constant pressure [J/K/mol]
288.15 K	1253.4
293.15 K	1298.3
298.15 K	1341.3
303.15 K	1357.6
308.15 K	1401.3
313.15 K	1414.1
318.15 K	1434.7
323.15 K	1468.5
328.15 K	1495.7
333.15 K	1522.1
338.15 K	1557.1
343.15 K	1591.3
348.15 K	1634.4
353.15 K	1682.1
358.15 K	1752.1
